The record followed here is patent US9382261B2, “Substituted quinazolinones as HCV inhibitors” (Janssen R&D Ireland, priority 2011, dated 2016).

Data set [1] is described as follows: Counterscreen Huh7-CMV-Luc. In kind it is cell-based. The settings on record: human; counterscreen cell line Huh7-CMV-Luc. The source says: (§1) The in vitro antiviral activity against HCV of the compounds of formula I can be tested in a cellular HCV replicon system based on Lohmann et al. (1999) Science 285:110-113, with the further modifications described by Krieger et al. (2001) Journal of Virology 75: 4614-4624 and Lohmann et al. (2003) Journal of Virology 77: 3007-3019 for genotype 1b and by Yi et al. (2004) Journal of Virology 78: 7904-7915 for genotype 1a (incorporated herein by reference), which is further exemplified in the examples section. This model, while not a complete infection model for HCV, is widely accepted as the most robust and efficient model of autonomous HCV RNA replication currently available. It will be appreciated that it is important to distinguish between compounds that specifically interfere with HCV functions from those that exert cytotoxic or cytostatic effects in the HCV replicon model, and as a consequence cause a decrease in HCV RNA or linked reporter enzyme concentration. Assays are known in the field for the evaluation of cellular cytotoxicity based for example on the activity of mitochondrial enzymes using fluorogenic redox dyes such as resazurin. Furthermore, cellular counter screens exist for the evaluation of non-selective inhibition of linked reporter gene activity, such as firefly luciferase. Appropriate cell types can be equipped by stable transfection with a luciferase reporter gene whose expression is dependent on a constitutively active gene promoter, and such cells can be used as a counter-screen to eliminate non-selective inhibitors.
(§2) Counterscreen cell lines included a Huh-7 hepatoma cell line containing a human cytomegalovirus major immediate-early promoter-Luc construct (Huh7-CMV-Luc) and an MT4 T-cell line containing a long terminal repeat-Luc reporter (MT4-LTR-Luc).

In data set [2] the test system is HCV subgenomic replicon genotype 1b Con1. The experiment in a line: HCV replicon assay, transient transfection, genotype 1b Con1 (Huh-7 lunet, luciferase readout). Type of data set: cell-based, HCV genotype 1b Con1. Conditions: Hepatitis C virus, 48 h, Huh-7 lunet transiently transfected, genotype 1b Con1, two days incubation. The source says: (§3) In a transient set-up, a Huh-7 lunet hepatoma cell line was transiently transfected with an autonomously replicating RNA encoding a bi-cistronic expression construct. This construct comprises a firefly luciferase reporter gene preceding the NS3-NS5B subgenomic region of HCV (genotype 1a H77 or 1b Con1). Translation of the HCV subgenomic region is mediated by an internal ribosome entry site of encephalomyocarditis virus. The construct is furthermore flanked by 5′ and 3′ untranslated regions of HCV (genotype 1a H77 or 1b Con1, respectively), which allow for replication of the RNA.
(§4) Cells were plated in 384 well plates in the presence of test and control compounds, which were added in various concentrations. Following an incubation of two days, replication of the HCV subgenomic replicon RNA was measured by assaying luciferase activity (using standard luciferase assay substrates and reagents and a Perkin Elmer ViewLux™ ultraHTS microplate imager). HCV subgenomic replicon containing cells in the control cultures have high luciferase expression in the absence of any inhibitor. The inhibitory activity of the compound was monitored, enabling a dose-response curve for each test compound. EC50 values were then calculated, which represent the amount of compound required to decrease the level of detected luciferase activity by 50%, or more specifically, to reduce the ability of the genetically linked HCV subgenomic RNA to replicate.

Data set [3] deals with HCV replicon type 1b in Huh-Luc cells. The data set can be described thus: HCV replicon assay, stable transfection (Huh-7 luc/neo, luciferase readout). In kind it is cell-based, HCV type 1b. Conditions: Hepatitis C virus, Huh-7, 72 h, stably transfected Huh-Luc cells, genotype 1b, three days incubation, average if tested more than once, read-out: HCV-REP-HUH7LUC_EC50. The source says: The compounds of formula (I) were examined for inhibitory activity in the HCV replicon. This cellular assay is based on a bicistronic expression construct, as described by Lohmann et al. (Science (1999) 285: 110-113; Journal of Virology (2003) 77: 3007-3019) with modifications described by Krieger et al. (Journal of Virology (2001) 75: 4614-4624), and Lohmann et al. (Journal of Virology (2003) 77: 3007-3019) for genotype 1b and by Yi et al. (Journal of Virology (2004) 78: 7904-7915) for genotype 1a, in a multi-target screening strategy.
The method was as follows. The assay utilized the stably transfected cell line Huh-7 luc/neo (hereafter referred to as Huh-Luc). This cell line harbors an RNA encoding a bicistronic expression construct comprising the wild type NS3-NS5B regions of HCV type 1b translated from an Internal Ribosome Entry Site (IRES) from encephalomyocarditis virus (EMCV), preceded by a reporter portion (FfL-luciferase), and a selectable marker portion (neoR, neomycine phosphotransferase). The construct is flanked by 5′ and 3′ NTRs (non-translated regions) from HCV type 1b. Continued culture of the replicon cells in the presence of G418 (neoR) is dependent on the replication of the HCV RNA. The stably transfected replicon cells that replicate HCV RNA autonomously and to high levels, encoding inter alia luciferase, were used for screening the antiviral compounds.
The replicon cells were plated in 384 well plates in the presence of the test and control compounds which were added in various concentrations. Following an incubation of three days, HCV replication was measured by assaying luciferase activity (using standard luciferase assay substrates and reagents and a Perkin Elmer ViewLux™ ultraHTS microplate imager). Replicon cells in the control cultures have high luciferase expression in the absence of any inhibitor. The inhibitory activity of the compound was monitored on the Huh-Luc cells, enabling a dose-response curve for each test compound. EC50 values were then calculated, which represent the amount of compound required to decrease the level of detected luciferase activity by 50%, or more specifically, to reduce the ability of the genetically linked HCV replicon RNA to replicate.
Where a compound of formula (I) was tested more than once in the replicon assay, the average of all test results is given in this Table 1.
For orientation: In antiviral work, replicon cells carry a viral genome segment that copies itself.

A short description of data set [4]: Counterscreen MT4-LTR-Luc. Conditions: human; counterscreen cell line MT4-LTR-Luc. In kind it is cell-based.
Text: as §1, §2

Data set [5] has as its system HCV subgenomic replicon genotype 1a H77. The experiment in a line: HCV replicon assay, transient transfection, genotype 1a H77 (Huh-7 lunet, luciferase readout). Type of data set: cell-based, HCV genotype 1a H77. Conditions: Hepatitis C virus, 48 h, Huh-7 lunet transiently transfected, genotype 1a H77, two days incubation.
Text: as §3, §4

On to `COC(=O)N[C@H](C(=O)N1CC2(C[C@H]1c1nc3cc(-c4ccc5cc(-c6cnc([C@@H]7C[C@H]8C[C@H]8N7C(=O)[C@@H](NC(=O)OC)C(C)C)[nH]6)ccc5c4)ccc3c(=O)[nH]1)OCCCO2)C(C)C` [Compound 1], for which the CC50 in data set [1] and in data set [4] was greater than 980000 pM each time. Further, the values for the EC50 in data set [2], in data set [3] and in data set [5] were 29 pM, 26 pM and 790 pM, respectively.
`COC(=O)N[C@H](C(=O)N1CC2(C[C@H]1c1ncc(-c3ccc4cc(-c5ccc6c(=O)[nH]c([C@@H]7CC8(CN7C(=O)[C@@H](NC(=O)OC)C(C)C)OCCO8)nc6c5)ccc4c3)[nH]1)OCCO2)C(C)C` [Compound 2]: the CC50 in data set [1] and in data set [4] was greater than 980000 pM throughout. Further, the EC50 was 33 pM in data set [2], 18 pM in data set [3] and 1400 pM in data set [5].
Consider `COC(=O)N[C@H](C(=O)N1[C@@H]2C[C@@H]2C[C@H]1c1ncc(-c2ccc3cc(-c4ccc5c(=O)[nH]c([C@@H]6C[C@H]7C[C@H]7N6C(=O)[C@@H](NC(=O)OC)C(C)C)nc5c4)ccc3c2)[nH]1)C(C)C` [Compound 3], for which the CC50 in data set [1] and in data set [4] was greater than 980000 pM each time. Besides, the EC50 in data set [2] came to 12 pM; in data set [3], 17 pM; in data set [5] it was 160 pM.
`COC(=O)N[C@H](C(=O)N1CC2(C[C@H]1c1ncc(-c3ccc4cc(-c5ccc6c(=O)[nH]c([C@@H]7C[C@H]8C[C@H]8N7C(=O)[C@@H](NC(=O)OC)C(C)C)nc6c5)ccc4c3)[nH]1)OCCO2)C(C)C` [Compound 4]: the CC50 in data set [1] and in data set [4] was greater than 980000 pM throughout. The EC50 in data set [2] came out at 13 pM; in data set [3] it was 8 pM; in data set [5] it was 103 pM.
Turning to `COC(=O)N[C@H](C(=O)N1CC2(C[C@H]1c1ncc(-c3ccc4cc(-c5ccc6c(=O)[nH]c([C@@H]7CCCN7C(=O)[C@@H](NC(=O)OC)C(C)C)nc6c5)ccc4c3)[nH]1)OCCO2)C(C)C` [Compound 5], the CC50 in data set [1] and in data set [4] was greater than 980000 pM each time. Also, the EC50 came to 25 pM in data set [2], 25 pM in data set [3] and 677 pM in data set [5].
As to `COC(=O)N[C@H](C(=O)N1[C@@H]2C[C@@H]2C[C@H]1c1ncc(-c2ccc3cc(-c4ccc5c(=O)[nH]c([C@@H]6C[C@@H]7CCCC[C@@H]7N6C(=O)[C@@H](NC(=O)OC)C(C)C)nc5c4)ccc3c2)[nH]1)C(C)C` [Compound 7], the CC50 in data set [1] and in data set [4] was greater than 980000 pM each time. For the same compound, the values for the EC50 in data set [2], in data set [3] and in data set [5] were 6 pM, 8 pM and 546 pM, respectively.
Take `COC(=O)N[C@H](C(=O)N1CC2(C[C@H]1c1ncc(-c3ccc4cc(-c5ccc6c(=O)[nH]c([C@@H]7C[C@@H]8CCCC[C@@H]8N7C(=O)[C@@H](NC(=O)OC)C(C)C)nc6c5)ccc4c3)[nH]1)OCCO2)C(C)C` [Compound 9]: the CC50 in data set [1] and in data set [4] was greater than 980000 pM throughout. Further, the EC50 was 6 pM in data set [2], 8 pM in data set [3] and 216 pM in data set [5].
As to `COC(=O)N[C@H](C(=O)N1CCC[C@H]1c1nc2cc(-c3ccc4cc(-c5cnc([C@@H]6C[C@H]7C[C@H]7N6C(=O)[C@@H](NC(=O)OC)C(C)C)[nH]5)ccc4c3)ccc2c(=O)[nH]1)C(C)C` [Compound 10], the CC50 in data set [1] and in data set [4] was greater than 980000 pM in each case. For the same compound, the EC50 in data set [2] is 5 pM; in data set [3], 6 pM; in data set [5] it was 341 pM.
`COC(=O)N[C@H](C(=O)N1[C@@H]2CC[C@@H](C2)[C@H]1c1nc2cc(-c3ccc4cc(-c5cnc([C@@H]6C[C@H]7C[C@H]7N6C(=O)[C@@H](NC(=O)OC)C(C)C)[nH]5)ccc4c3)ccc2c(=O)[nH]1)C(C)C` [Compound 12]: the CC50 in data set [1] and in data set [4] was greater than 980000 pM throughout. Moreover, the EC50 in data set [2] came out at 109 pM; in data set [3], 270 pM; in data set [5], 12500 pM.
For `COC(=O)N[C@H](C(=O)N1CC2(CC2)C[C@H]1c1ncc(-c2ccc3cc(-c4ccc5c(=O)[nH]c([C@@H]6C[C@@H]7CCCC[C@@H]7N6C(=O)[C@@H](NC(=O)OC)C(C)C)nc5c4)ccc3c2)[nH]1)C(C)C` [Compound 13], the CC50 in data set [1] and in data set [4] was greater than 980000 pM throughout. Further, the EC50 in data set [2] is 9 pM; in data set [3], 6 pM; in data set [5], 360 pM.
With `COC(=O)N[C@H](C(=O)N1[C@H](c2ncc(-c3ccc4cc(-c5ccc6c(=O)[nH]c([C@@H]7C[C@@H]8CCCC[C@@H]8N7C(=O)[C@@H](NC(=O)OC)C(C)C)nc6c5)ccc4c3)[nH]2)C[C@@H]2CCCC[C@@H]21)C(C)C` [Compound 14], the CC50 in data set [1] and in data set [4] was greater than 980000 pM each time. Also, the EC50 in data set [2] turned out to be 21 pM; in data set [3], 22 pM; in data set [5] it was 136 pM.
Take `COC(=O)N[C@H](C(=O)N1CCC[C@H]1c1ncc(-c2ccc3cc(-c4ccc5c(=O)[nH]c([C@@H]6C[C@@H]7CCCC[C@@H]7N6C(=O)[C@@H](NC(=O)OC)C(C)C)nc5c4)ccc3c2)[nH]1)C(C)C` [Compound 15]: the CC50 in data set [1] and in data set [4] was greater than 980000 pM throughout. Besides, the values for the EC50 in data set [2], in data set [3] and in data set [5] were 7 pM, 6 pM and 496 pM, respectively.
